Patent publication US20070203144A1, “Use of Memantine and Brimonidine to Attenuate Vitreoretinal Vascular Endothelial Growth Factor (VEGF) Protein Levels in Animals” (Allergan, Inc., priority 2006, published 2007)

Experiments:
VEGF protein [1] = assay: Vitreal VEGF protein level in STZ-induced diabetic Long Evans rats; assay type: in vivo; conditions: STZ diabetic LE rats, mini-osmotic pump, STZ/Veh 228, Veh/Veh 164
Protocol: Long Evans (LE) rats were treated with vehicle or streptozotocin (1×, 65 mg/kg). After 7 days, vehicle treated rats were treated further with a second vehicle and STZ treated diabetic rats were treated either with a second vehicle, Brimonidine (1 mg/kg/d) as a positive control, Panagonist A (300 ug/kg/d) or panagonist B (300 ug or 3 mg/kg/d) for another 3 wks using mini-osmotic pumps. Note that the synthesis of these two panagonists is known in the art. The panagonists have the following structure [drawing 1]
At end of the study, animals were sacrificed & vitreal VEGF protein level was measured as described earlier.
Long Evans rats were treated with vehicle or streptozotocin (1×, 65 mg/kg). After 7 days, vehicle treated rats were treated further with a second vehicle and STZ treated diabetic rats were treated either with a second vehicle, Brimonidine (1 mg/kg/d) as a positive control, or the Alpha 2B selective agonist, [drawing 2] (“2B Agonist”) (300 ug or 3 mg/kg/d) for another 3 wks using mini-osmotic pumps At end of the study, animals were sacrificed & vitreal VEGF protein level was measured as described earlier.

VEGF protein [2] = assay: VEGF protein levels in vitreous fluid of non-diabetic BN rats; assay type: in vivo, Brown Norway (BN) rats; conditions: Mem 10 mg/kg/day or Bri 1 mg/kg/day for 28 days
VEGF protein [3] = assay: VEGF protein levels in retina of STZ-treated BN rats; assay type: in vivo, Brown Norway (BN) rats; conditions: 5 wks, Mem 10 mg/kg/day or Bri 1 mg/kg/day for 4 wks after 1 wk of STZ, STZ/Veh 719, Veh/Veh 482
Protocol: (§1) Male Brown Norway (BN) rats were randomized into 4 different groups based on basal glucose and body weight. Using one time IP injection, one group of animals was treated with vehicle and other 3 groups were treated with 65 mg/kg streptozotocin (STZ). Within two days after STZ-treatment, blood glucose of the animals reached to 400 mg/dl from 100 mg/dl. After one wk of vehicle or STZ treatment, vehicle treated animals were further treated with a second vehicle for another 4 wks (Veh/Veh-35 D) and STZ treated animals were treated with either a second vehicle (STZ-35D/Veh-28D), Memantine, Mem (10 mg/kg/day) (STZ-35D/Mem-28D) or Brimonidine, Bri (1 mg/kg/day) for 4 wks (STZ-35D/Bri-28D) using mini osmotic pumps.

[4] = test system: blood-retinal barrier (BRB); assay: Retinal BRB breakdown in STZ-treated BN rats; assay type: in vivo, Brown Norway (BN) rats; conditions: 5 wks, Mem 10 mg/kg/day or Bri 1 mg/kg/day for 4 wks after 1 wk of STZ, STZ/Veh 22.9, Veh/Veh 9.1
Protocol: as §1

VEGF protein [5] = assay: VEGF protein levels in vitreous fluid of STZ-treated BN rats; assay type: in vivo, Brown Norway (BN) rats; conditions: 5 wks, Mem 10 mg/kg/day or Bri 1 mg/kg/day for 4 wks after 1 wk of STZ, STZ/Veh 259, Veh/Veh 157
Protocol: as §1

[6] = 300 ug/kg/d for 3 wks (1 wk after STZ)
[7] = 3 mg/kg/d for 3 wks (1 wk after STZ)

SMILES	VEGF protein levels in vitreous fluid (VEGF protein [1]; [6])	VEGF protein levels in vitreous fluid (VEGF protein [1]; [7])	difference in vitreous fluid VEGF protein levels vs vehicle (VEGF protein [2])	VEGF protein levels in retina (VEGF protein [3])	BRB breakdown in retina [4]	VEGF protein levels in vitreous fluid (VEGF protein [1]; 1 mg/kg/d for 3 wks (1 wk after STZ))	VEGF protein levels in vitreous fluid (VEGF protein [5])
S=c1[nH]cc(CC2CC=CC2)[nH]1 [2B Agonist]	148 pg/mL	130 pg/mL	–	–	–	–	–
Brc1c(NC2=NCCN2)ccc2nccnc12 [Brimonidine, brimonidine]	–	–	no difference	455 pg/mg protein	12.2 ul plasma/g retina dry weight/hr	133 pg/mL	140 pg/mL
CC12CC3CC(C)(C1)CC(N)(C3)C2 [Memantine, memantine]	–	–	no difference	475 pg/mg protein	11.9 ul plasma/g retina dry weight/hr	–	160 pg/mL
c1cnc2c(c1)CC[C@@H](Cc1c[nH]cn1)C2 [panagonist A]	133 pg/mL	–	–	–	–	–	–
Cc1cccc([C@@H](C)c2c[nH]c(=S)[nH]2)c1C [panagonist B]	122 pg/mL	109 pg/mL	–	–	–	–	–
